# “Also recorded” adds a separate entry of the source.
# Assays:
# [1] = test system: DM1 model flies [Mhc-Gal4 UAS-i(CTG)480>yw]; assay: Histological analysis of indirect flight muscle area in DM1 model flies; format: in vivo, Drosophila; conditions: oral administration
# Protocol: Analysis of the indirect flight muscle area in Drosophila thoraces was performed as previously described (13). Briefly, six Drosophila thoraces of three-day-old females were embedded in Epon following standard procedures. After the drying of the resin, semi-thin sections of 1.5 μm were obtained using Ultracut E ultramicrotome system (Reichert & Jung and Leica). Images were taken at 100× magnification with a Leica DM2500 microscope. To quantify muscle area, five images per fly containing IFMs (indirect flight muscles) were converted into binary images. Considering the complete image as 100% of the area, the percentage occupied by pixels corresponding to IFMs was calculated using NIH ImageJ software. P-values were obtained using a two-tailed, non-paired t-test (α=0.05), applying Welch's correction when necessary.
# For that purpose, DM1 model flies were fed with food containing 10 and 100 μM NAC for 7 days.
# Histological analysis of muscles was performed in adult model flies [Mhc-Gal4 UAS-i(CTG)480>yw] and control flies (Mhc-Gal4>yw) which were fed for 7 days at 25° C. with standard media containing 10 and 100 μM NAC. After that period, six female thoraces were subjected to non-fluorescent histological analysis, as described above (FIG. 7).
# [2] = test system: DM1 model flies (Mhc-Gal4 UASi(CTG)480>yw); assay: Drosophila lifespan analyses with oral drug administration; format: in vivo; conditions: for increase in mean life compared to that for untreated flies: oral, 29° C.; for median survival compared to untreated flies / survival / mean life expectancy of myotonic dystrophy type 1 model flies (summary): oral administration; for survival / mean life expectancy of myotonic dystrophy type 1 model flies (summary): tested at 10 and 100 μM
# Protocol: Between 50-80 newly emerged flies were collected in freshly prepared tubes containing standard nutritive medium containing apoptosis or autophagic inhibitor drugs or solvent only (water or DMSO). Males and females were kept in different tubes at 29° C. Every day, the number of dead flies was scored. Flies were transferred to new tubes twice a week. NAC, chloroquine and NSCl (Sigma-Aldrich) were tested at 10 and 100 μM and dissolved in water or DMSO following the manufacturer's indications. Survival curves were obtained using the Kaplan-Meier method. Statistical curve comparisons were carried out according to the Gehan-Breslow-Wilcoxon test (α=0.05).
# The effect of a chemical inhibition of apoptosis or autophagy in model flies (Mhc-Gal4 UASi(CTG)480>yw) was studied. Consequently, two different drugs previously described as autophagic inhibitors were tested. N-acetyl cysteine (NAC) blocks reactive oxygen species (ROS) and protects cells by inhibiting autophagy through activation of the PI3K/Akt/mTOR pathway (20), and chloroquine triggers autophagy inhibition raising lysosomal pH and, consequently, the fusion of autophagosome with lysosome, thus preventing lysosomal protein degradation [reviewed in (21)]. Both drugs were assayed at two different concentrations, 10 and 100 μM (FIGS. 5 A, B).
# Additionally, the effects of apoptosis inhibition were assayed. NSCl, a caspase 3 inhibitor, was orally administered.
# [3] = test system: Myosin heavy chain (Mhc)-Gal4 UAS-i(CTG)480 flies; assay: Flight assay (landing height); format: in vivo, Drosophila; conditions: five days
# Protocol: Flight assays were performed five days after according to (Babcock et al. 2014 PMID: 24561810) using 100 male flies per group. Landing distance was compared between groups taking the compound and controls using t-student test (FIG. 8). The significance threshold was set to p<0.05.
# [4] = test system: ribonuclear foci; assay: Ribonuclear foci detection in DM1 cells (in situ hybridization); format: cell-based, human; conditions: 0.1, 1, 10 and 100 μM, 24 h
# Protocol: In addition, for ribonuclear foci detection, fibroblasts were aliquoted in 96-well plate (1.0×10^4 cells per well). Compound was added 24 hours after plating the cells. After 24 hours incubation with NAC at concentrations of 0.1, 1, 10 and 100 μM using DMSO and water as vehicle, cells were fixed in 4% paraformaldehyde (PFA) for 10 min at room temperature followed by several washes in PBS 1×. Fixed cells were incubated in pre-hybridization buffer (SSC 2×, 30% deionized formamide) for 30 min at room temperature, hybridized with Cy3-(CAG)7-Cy3 labelled probe diluted 1:500 in hybridization buffer (40% formamide, 2×SSC, 0.2% BSA, 10% dextran sulfate, 2 mM vanadyl complex, 10% tRNA (10 mg/mL), 10% herring sperm) for 2 hours at 37° C., washed twice in SSC2× buffer for 15 min at 45° C., washed in PBS 1× for 15 min at room temperature, incubated with Hoechst 33342 (5 mg/mL) diluted 1:2000 in PBS 1× for 20 min at room temperature and mounted with 20% MOWIOL. Images were taken using IN Cell Analyzer 2200 Imaging System and foci number was counted using software designed for this system.
# [5] = test system: MBNL1; assay: MBNL1 nuclear protein levels in DM1 myoblasts (immunofluorescence); format: cell-based, human; conditions: 0.1, 1, 10 and 100 μM, 24 h
# Protocol: In order to determine whether NAC modifies MBNL1 protein levels and/or the number of ribonuclear foci, DM1 fibroblasts were transdifferentiated to myoblasts by induction of MyoD expression for 24 h. To this end, fibroblasts were aliquoted in 96-well plate (8×10^3 cells per well) and transdifferentiated to myoblast in DMD media over 24 hours before the addition of NAC was added at concentrations of 0.1, 1, 10 and 100 μM using DMSO and water as vehicle and remained in the media with the compound another 24 hours. Subsequently cells were fixed in 4% paraformaldehyde (PFA) for 10 min at room temperature followed by several washes in PBS 1×. Cells were then permeabilized with 0.3% Triton in PBS (PBT), blocked (PBT 1% donkey serum and 0.5% BSA) for 30 min at room temperature, and incubated with primary antibody (mouse anti-MBNL1 1:200; Sigma) at 4° C. overnight in order to detect MBNL1 with a monoclonal antibody. After several washes with PBT, cells were incubated for 45 min with biotin-conjugated secondary antibody (Sigma) at a 1:200 dilution. Cells were then incubated with ABC solution (ABC kit, VECTASTAIN) for 30 min at room temperature, followed by PBT washes and incubation with streptavidin-FITC (1:200) for 45 min. […] Images were taken using IN Cell Analyzer 2200 Imaging System and MBNL intensity in nuclei was counted using software designed for this system.
# [6] = test system: DM1 fibroblasts; assay: LysoTracker staining of autolysosomes in DM1 fibroblasts; format: cell-based, human; conditions: 0.01, 1, 10 and 100 μM, 48 h
# Protocol: A cell model of DM1 (provided by D. Furling's laboratory, Institute of Myologie, Paris) consisted of normal and DM1 (1300 CTG repeats) immortalized (hTERT) skin fibroblasts expressing conditional MyoD. Fibroblast cells were grown in Dulbecco's Modified Eagle Medium (DMEM) with 4.5 g/L of glucose, 1% of penicillin and streptomycin (P/S) and 10% foetal bovine serum (FBS) (Sigma). For compound testing, fibroblasts were aliquoted in 24-well plate at 3.5×10^4 cells per well. Each well contained a cover slip.
# To this end, a cell model of DM1 was cultured as described above and NAC (Sigma-Aldrich) was added to afford final concentrations of 0.01, 1, 10 and 100 μM before incubating the cultures for 48 hours. To transdifferentiate fibroblasts into myoblasts by inducing expression of MyoD, cells were plated in muscle differentiation medium (MDM) containing DMEM 4.5 g/L glucose with 1% P/S, 2% horse serum, 1% apo-transferrin (10 mg/mL), 0.1% insulin (10 mg/mL) and 0.02% doxycyclin (10 mg/mL). After treatment with NAC, each well was washed twice with PBS and incubated with 100 nM LysoTracker RED-DND99 and 5 μg/mL Hoechst 33258 (Invitrogen and Sigma-Aldrich, respectively) at 37° C. for 30 min and mounted using fluorescence mounting medium (Dako, Glostrup, Denmark). Images from cell culture were obtained using a fluorescence microscope Leica DM4000 B LED at 400× magnification (FIG. 6).
structure (smiles),measurement,setting,value
CCN(CC)CCCC(C)Nc1ccnc2cc(Cl)ccc12 (stereo not shown) [chloroquine],muscle area of IFM versus water control,[1]; 10 μM,increase in muscle area
same,increase in mean life compared to that for untreated flies,[2]; 10 μM in food,at least twice
same,median survival compared to untreated flies,[2]; 10 μM,increased median survival
same,increase in mean life compared to that for untreated flies,[2]; 100 μM in food,at least twice
same,median survival compared to untreated flies,[2]; 100 μM,increased median survival
same,survival / mean life expectancy of myotonic dystrophy type 1 model flies (summary),[2],more than doubled
"CC(=O)N[C@@H](CS)C(=O)O [NAC, N-acetyl cysteine]",landing height,[3]; 10 μM in food,significantly higher landing height
same,landing height,[3]; 100 μM in food,significantly higher landing height
same,muscle area of IFM versus water control,[1]; 10 μM,increase in muscle area
same,muscle area of IFM versus water control,[1]; 100 μM,increase in muscle area
same,number of ribonuclear foci,[4],does not modify; also recorded: neither modifies
same,MBNL1 intensity in the nucleus / MBNL1 protein levels,[5],remains unchanged
same,increase in mean life compared to that for untreated flies,[2]; 10 μM in food,at least twice
same,median survival compared to untreated flies,[2]; 10 μM,increased median survival
same,increase in mean life compared to that for untreated flies,[2]; 100 μM in food,at least twice
same,median survival compared to untreated flies,[2]; 100 μM,increased median survival
same,survival / mean life expectancy of myotonic dystrophy type 1 model flies (summary),[2],more than doubled
same,autolysosomes (LysoTracker staining) compared to untreated DM1 fibroblasts,[6],dramatic decrease of autolysosomes; also recorded: dramatically reduce autolysosomes
"COc1ccc(CN2C(=O)C(=O)c3cc(S(=O)(=O)N4CCC[C@H]4COc4cccnc4)ccc32)cc1 [NSCl, 1-(4-methoxybenzyl)-5-({(2S)-2-[(3-pyridinyloxy)methyl]-1-pyrrolidinyl}sulfonyl)-1H-indole-2,3-dione]",improvement of mean life,"[2]; 10 μM (lower concentration), orally administered",4 days
same,median survival compared to untreated flies,[2]; 10 μM,improvement in median survival
same,median survival compared to untreated flies,[2]; 100 μM,No effect
same,survival / mean life expectancy of myotonic dystrophy type 1 model flies (summary),[2],improved
